Test results reported in patent US4039540A, “3-Substituted quinoxaline-2-carboxamide-1,4-dioxides” (Pfizer Inc., priority 1975, dated 1977).
Converted amounts (≈) assume the structure as drawn. Like-named read-outs stand apart in the source and are kept apart here.

Experiments:
E. coli [1] = test: in vivo activity in mice infected with a lethal inoculum of E. coli; settings: Escherichia coli, sc, subcutaneous, multiple dosing, read-out: IN VIVO E. coli, number of survivors among the treated animals
Experimental: (§1) In determining the in vivo activity of the quinoxaline-1,4-dioxides of this invention, the test compound is administered to mice which have been infected by […] injection of a lethal inoculum of pathogenic bacteria. The test compound is administered using a multiple dosing regimen and using either the oral (PO) or the subcutaneous (SC) route. The inoculum of bacteria varies from about 1 to about 10 times the amount needed to kill 100% of the mice under the conditions of the test. At the end of the test, the activity of the compound is assessed by counting the number of survivors among the treated animals.
(§2) In vitro and in vivo activity of representative compounds of this invention, determined as aforesaid, are reported in the following tabulation for compounds of the formula: [drawing 12]

Strep. pyogenes = test: in vivo activity in mice infected with a lethal inoculum of Strep. pyogenes; settings: Streptococcus pyogenes, multiple dosing
Experimental: as §1, §2

Strep. pyrogens = test: in vitro antibacterial activity, two-fold serial dilution in Brain-Heart Infusion Broth (MIC); assay type: cell-based; settings: overnight, anaerobic
Experimental: (§3) The broth is inoculated with bacteria and with the test quinoxaline-1,4-dioxide and then it is incubated overnight under anerobic conditions. On the next day, the test is read visually. The minimum inhibitory concentration (MIC) of test compound is the lowest concentration which prevents turbidity, i.e., which prevents growth of the microorganism.
as §2

E. coli [2] = test: as above; assay type: cell-based; settings: Escherichia coli, overnight, anaerobic
Experimental: as §3, §2

[3] = oral, read-out: IN VIVO Strep. pyogenes, number of survivors among the treated animals, PO (data in parenthesis)
[4] = sc, subcutaneous, read-out: IN VIVO Strep. pyogenes, number of survivors among the treated animals

SMILES: CCC(CO)NC(=O)c1c(CS(=O)(=O)CCO)[n+]([O-])c2ccccc2[n+]1[O-] (stereo not drawn) [NHCHEtCH2 OH; SO2 CH2 CH2 OH; H]
- responders at 25 mg/kg (E. coli [1]): 10%
- responders at 50 mg/kg (Strep. pyogenes; [3]): 80%
- responders at 50 mg/kg (Strep. pyogenes; [4]): 0%
- MIC (Strep. pyrogens): 3.12 µg/mL (≈ 7.82 µM)
- MIC (E. coli [2]): 200 µg/mL (≈ 501 µM)

SMILES: CCCCNC(=O)c1c(CS(=O)(=O)CCO)[n+]([O-])c2ccccc2[n+]1[O-] [NHBu; SO2 CH2 CH2 OH; H]
- responders at 25 mg/kg (E. coli [1]): 40%
- responders at 50 mg/kg (Strep. pyogenes; [3]): 40%
- responders at 50 mg/kg (Strep. pyogenes; [4]): 0%
- MIC (Strep. pyrogens): 1.56 µg/mL (≈ 4.07 µM)
- MIC (E. coli [2]): 25 µg/mL (≈ 65.2 µM)

SMILES: O=C(NCCO)c1c(CS(=O)(=O)CCCN2CCCCC2)[n+]([O-])c2ccccc2[n+]1[O-] [NHCH2 CH2 OH; drawing 22; H]
- responders at 25 mg/kg (E. coli [1]): 20%
- responders at 50 mg/kg (Strep. pyogenes; [3]): 20%
- responders at 50 mg/kg (Strep. pyogenes; [4]): 100%
- MIC (Strep. pyrogens): 50 µg/mL (≈ 110 µM)
- MIC (E. coli [2]): 25 µg/mL (≈ 55.2 µM)

SMILES: CCCNC(=O)c1c(CS(=O)(=O)CCCN(C)C)[n+]([O-])c2ccccc2[n+]1[O-] [NHCH2 CH2 CH3; SO2 (CH2)3 N(CH3)2; H]
- responders at 25 mg/kg (E. coli [1]): 20%
- responders at 50 mg/kg (Strep. pyogenes; [3]): 80%
- responders at 50 mg/kg (Strep. pyogenes; [4]): 100%
- MIC (Strep. pyrogens): 25 µg/mL (≈ 60.9 µM)
- MIC (E. coli [2]): 25 µg/mL (≈ 60.9 µM)

SMILES: COCCNC(=O)c1c(CS(=O)(=O)CCO)[n+]([O-])c2ccccc2[n+]1[O-] [NHCH2 CH2 OCH3; SO2 CH2 CH2 OH; H]
- responders at 25 mg/kg (E. coli [1]): 0%
- responders at 50 mg/kg (Strep. pyogenes; [3]): 0%
- responders at 50 mg/kg (Strep. pyogenes; [4]): 40%
- MIC (Strep. pyrogens): 0.781 µg/mL (≈ 2.03 µM)
- MIC (E. coli [2]): 12.5 µg/mL (≈ 32.4 µM)

SMILES: CN(C)CCCS(=O)(=O)Cc1c(C(=O)NCCO)[n+]([O-])c2ccccc2[n+]1[O-] [NHCH2 CH2 OH; SO2 (CH2)3 N(CH3)2; H]
- responders at 25 mg/kg (E. coli [1]): 0%
- responders at 50 mg/kg (Strep. pyogenes; [3]): 0%
- responders at 50 mg/kg (Strep. pyogenes; [4]): 60%
- MIC (Strep. pyrogens): 50 µg/mL (≈ 121 µM)
- MIC (E. coli [2]): 50 µg/mL (≈ 121 µM)

SMILES: CN(C)CCCS(=O)(=O)Cc1c(C(=O)N(C)C)[n+]([O-])c2ccccc2[n+]1[O-] [N(CH3)2; SO2 (CH2)3 N(CH3)2; H]
- responders at 25 mg/kg (E. coli [1]): 100%
- responders at 50 mg/kg (Strep. pyogenes; [3]): 60%
- responders at 50 mg/kg (Strep. pyogenes; [4]): 100%
- MIC (Strep. pyrogens): 3.12 µg/mL (≈ 7.88 µM)
- MIC (E. coli [2]): 3.12 µg/mL (≈ 7.88 µM)

SMILES: CC(=O)OCCCSCc1c(C(=O)NCCO)[n+]([O-])c2ccccc2[n+]1[O-] [NHCH2 CH2 OH; S(CH2)3 OAc; H]
- responders at 25 mg/kg (E. coli [1]): 30%
- responders at 50 mg/kg (Strep. pyogenes; [3]): 30%
- responders at 50 mg/kg (Strep. pyogenes; [4]): 10%
- MIC (Strep. pyrogens): 6.25 µg/mL (≈ 15.8 µM)
- MIC (E. coli [2]): 100 µg/mL (≈ 253 µM)

SMILES: CCCCNC(=O)c1c(CSCCO)[n+]([O-])c2ccccc2[n+]1[O-] [NHBu; SCH2 CH2 OH; H]
- responders at 25 mg/kg (E. coli [1]): 0%
- responders at 50 mg/kg (Strep. pyogenes; [3]): 10%
- responders at 50 mg/kg (Strep. pyogenes; [4]): 20%
- MIC (Strep. pyrogens): 50 µg/mL (≈ 142 µM)
- MIC (E. coli [2]): 50 µg/mL (≈ 142 µM)

SMILES: CN(C)CCCS(=O)(=O)Cc1c(C(N)=O)[n+]([O-])c2ccccc2[n+]1[O-] [NH2; SO2 (CH2)3 N(CH3)2; H]
- responders at 25 mg/kg (E. coli [1]): 50%
- responders at 50 mg/kg (Strep. pyogenes; [3]): 20%
- responders at 50 mg/kg (Strep. pyogenes; [4]): 100%
- MIC (Strep. pyrogens): 1.56 µg/mL (≈ 4.24 µM)
- MIC (E. coli [2]): 25 µg/mL (≈ 67.9 µM)

SMILES: NC(=O)c1c(CS(=O)(=O)CCCN2CCCCC2)[n+]([O-])c2ccccc2[n+]1[O-] [NH2; drawing 24; H]
- responders at 25 mg/kg (E. coli [1]): 100%
- responders at 50 mg/kg (Strep. pyogenes; [3]): 40%
- responders at 50 mg/kg (Strep. pyogenes; [4]): 100%
- MIC (Strep. pyrogens): 6.25 µg/mL (≈ 15.3 µM)
- MIC (E. coli [2]): 6.25 µg/mL (≈ 15.3 µM)

SMILES: CCN(CC)CCCNC(=O)c1c(CS(=O)(=O)CCO)[n+]([O-])c2ccccc2[n+]1[O-] [NH(CH2)3 N(Et)2; SO2 CH2 CH2 OH; H]
- responders at 25 mg/kg (E. coli [1]): 50%
- responders at 50 mg/kg (Strep. pyogenes; [4]): 10%
- MIC (Strep. pyrogens): 200 µg/mL (≈ 454 µM)
- MIC (E. coli [2]): > 200 µg/mL

SMILES: COCCNC(=O)c1c(CS(=O)(=O)CCCOC(C)=O)[n+]([O-])c2ccccc2[n+]1[O-] [NHCH2 CH2 OCH3; SO2 CH2 CH2 CH2 OAc; H]
- responders at 25 mg/kg (E. coli [1]): 10%
- responders at 50 mg/kg (Strep. pyogenes; [3]): 10%
- responders at 50 mg/kg (Strep. pyogenes; [4]): 20%
- MIC (Strep. pyrogens): 12.5 µg/mL (≈ 28.3 µM)
- MIC (E. coli [2]): 100 µg/mL (≈ 227 µM)

SMILES: CCN(CC)CCCS(=O)(=O)Cc1c(C(N)=O)[n+]([O-])c2ccccc2[n+]1[O-] [NH2; SO2 (CH2)3 N(CH2 CH3)2; H]
- responders at 25 mg/kg (E. coli [1]): 80%
- responders at 50 mg/kg (Strep. pyogenes; [3]): 50%
- responders at 50 mg/kg (Strep. pyogenes; [4]): 90%
- MIC (Strep. pyrogens): 3.12 µg/mL (≈ 7.88 µM)
- MIC (E. coli [2]): 6.25 µg/mL (≈ 15.8 µM)

SMILES: CCNC(=O)c1c(CS(=O)(=O)CCCN2CCOCC2)[n+]([O-])c2ccccc2[n+]1[O-] [NHCH2 CH3; drawing 17; H]
- responders at 25 mg/kg (E. coli [1]): 60%
- responders at 50 mg/kg (Strep. pyogenes; [3]): 80%
- responders at 50 mg/kg (Strep. pyogenes; [4]): 100%
- MIC (Strep. pyrogens): 12.5 µg/mL (≈ 28.5 µM)
- MIC (E. coli [2]): 25 µg/mL (≈ 57 µM)

SMILES: O=C(NCCO)c1c(CS(=O)(=O)CCO)[n+]([O-])c2ccccc2[n+]1[O-] [NHCH2 CH2 OH; SO2 CH2 CH2 OH; H]
- responders at 25 mg/kg (E. coli [1]): 10%
- responders at 50 mg/kg (Strep. pyogenes; [3]): 10%
- responders at 50 mg/kg (Strep. pyogenes; [4]): 30%
- MIC (Strep. pyrogens): 25 µg/mL (≈ 67.3 µM)
- MIC (E. coli [2]): 100 µg/mL (≈ 269 µM)

SMILES: O=C(NCCO)c1c(CSCCO)[n+]([O-])c2ccccc2[n+]1[O-] [NHCH2 CH2 OH; SCH2 CH2 OH; H]
- responders at 25 mg/kg (E. coli [1]): 0%
- responders at 50 mg/kg (Strep. pyogenes; [3]): 50%
- responders at 50 mg/kg (Strep. pyogenes; [4]): 30%
- MIC (Strep. pyrogens): 12.5 µg/mL (≈ 36.8 µM)
- MIC (E. coli [2]): 50 µg/mL (≈ 147 µM)
